Experimental findings from patent publication US9394254B2, “Antibiotic and anti-parasitic agents that modulate class II fructose 1,6-bisphosphate aldolase” (priority 2013, dated 2016) are described below.

The target of test [1] is T1, MtFBA (Mycobacterium tuberculosis (strain ATCC 25618 / H37Rv), UniProt P9WQA3). The format is binding. The settings on record: 25° C.
Test [2] in a line: Calorimetric titration into MtFBA buffer with 200 μM ZnCl2 (no enzyme). The format is binding. The note with it: 1 mM compound titrated into MtFBA buffer with 200 μM ZnCl2, 25° C. As to the method: FIG. 5 provides data from the calorimetric titration of HCA. […] Top graphs represent raw heat data and bottom graphs are integrated heat peaks gained at 25° C.
Top graphs represent raw heat data and bottom graphs are integrated heat peaks gained at 25° C. from 25 injections of Regis 5 into 170 μL of 20 mM Tricine pH 8.0, 100 mM NaCl, and either (a) 700 μM MtFBA with 100 μM ZnCl2 or (b) 200 μM ZnCl2. Data sets were collected in duplicate, analyzed with NanoAnalyze™ software, and fit to an independent model concurrently with a bank constant model to adjust for a heat of dilution.

Test [3] concerns the target T1, MtFBA. In words: MtFBA enzyme inhibition. It is filed as biochemical. The settings on record: for % Inhibition at 1 mM: 1 mM compound.
Test [4] addresses class IIa FBA isolated from E. coli (Escherichia coli (strain K12), UniProt P0AB71). In words: Inhibition of class IIa FBA from E. coli. It is filed as biochemical. The settings on record: 25 μM HCA. As to the method: Class II FBAs can be broken down into two families (a/b) whose distribution among bacterium is independent of Gram staining determined phylogenetic groups. In this illustration, a single concentration of HCA at 25 μM was tested for the inhibition of class IIa FBA isolated from E. coli and class IIb FBA originating from methicillin-resistant S. aureus (MRSA).
Error bars represent standard deviations from the average.

Test [5] has as its target class I FBA (Oryctolagus cuniculus (Rabbit), UniProt P00883). The test can be described thus: Inhibition of class I FBA from rabbit muscle. The format is biochemical. The note with it: concentrations as high as 1 mM.
Test [6] concerns class I FBA. The settings on record: human muscle, concentrations as high as 1 mM.

Sequence of class I FBA (Oryctolagus cuniculus (Rabbit), UniProt P00883) (P00883 whole entry, looked up): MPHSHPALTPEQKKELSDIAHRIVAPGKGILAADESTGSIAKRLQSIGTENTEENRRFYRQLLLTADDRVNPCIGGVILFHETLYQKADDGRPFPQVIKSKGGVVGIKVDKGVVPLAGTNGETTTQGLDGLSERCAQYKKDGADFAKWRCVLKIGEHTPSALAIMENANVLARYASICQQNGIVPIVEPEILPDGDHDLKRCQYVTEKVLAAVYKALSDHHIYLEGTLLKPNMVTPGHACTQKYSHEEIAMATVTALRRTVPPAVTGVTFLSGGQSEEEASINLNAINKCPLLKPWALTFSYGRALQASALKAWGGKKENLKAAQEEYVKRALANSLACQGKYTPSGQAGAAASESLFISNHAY
Sequence of class IIa FBA isolated from E. coli (P0AB71 whole entry, looked up): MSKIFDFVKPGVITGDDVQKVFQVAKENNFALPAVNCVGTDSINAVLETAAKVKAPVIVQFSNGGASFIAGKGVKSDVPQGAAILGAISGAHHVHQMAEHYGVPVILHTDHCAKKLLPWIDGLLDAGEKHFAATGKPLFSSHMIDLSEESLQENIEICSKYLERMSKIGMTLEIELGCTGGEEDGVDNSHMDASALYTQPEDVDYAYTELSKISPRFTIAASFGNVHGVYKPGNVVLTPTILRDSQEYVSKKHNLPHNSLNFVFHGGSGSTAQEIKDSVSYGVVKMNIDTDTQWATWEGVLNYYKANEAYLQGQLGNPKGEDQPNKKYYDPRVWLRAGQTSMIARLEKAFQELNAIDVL

As a reminder, the Kd is the free concentration of one partner at which half of the binding sites on the other are occupied at equilibrium, for simple one-to-one binding. Usually IC50 stands for the concentration at which inhibition is half-maximal. Usually inhibition stands for how much of the control response was suppressed. In general, % inhibition refers to the change of the read-out against control, counted positive when it falls. A high value points to a response far below the control. As to `O=C(O)c1ccc2cccc(O)c2n1` [Compound 5], the “n (ITC stoichiometry)” value on MtFBA [1] is 0.94±0.14. Further, the ΔH at MtFBA [1] (ITC) was -6.867 ± 0.139 kcal/mol. The ΔS at MtFBA [1] (ITC) was 2.44±3.12 J mol^−1 K^−1. Besides, the Kd at MtFBA [1] (ITC, 5 mM compound into 700 μM MtFBA, 20 mM Tricine pH 8.0, 100 mM NaCl, 100 μM ZnCl2, read-out: dissociation constant Kd) amounted to 6.94 ± 0.97 µM. In test [2], the “binding to buffer Zn(II)” value is “no appreciable binding”. Also, the IC50 against MtFBA [3] (FIG. 6A inset, serial dilutions of compound) worked out at 17 ± 2.1 µM; on MtFBA [3] (SAR table) it was 14 ± 2 µM. For the same compound, the inhibition at 1000 µM at MtFBA [3] (read-out: % Inhibition at 1 mM) was determined as 95 ± 4.1%. In test [4], the “% inhibition” value was found to be 42.2±2.8%. For the same compound, the “inhibition of class I FBA” value against class I FBA [5] and in the test with class I FBA [6] was “no inhibitory affects” each time.
The % Inhibition is the drop in the measured response relative to a control, in per cent. A higher % Inhibition goes with a response far below the control. As to `CS(=O)(=O)Nc1ccc2cccc(O)c2n1` [Compound 34], the “% Inhibition at 1 mM” value on MtFBA [3] came out at 12 ± 5.4%. At MtFBA [3] (SAR table), this compound gave an IC50 of 570 ± 87 µM.
Turning to `Oc1cccc2cccnc12` [Compound 6], the “% Inhibition at 1 mM” value on MtFBA [3] is given as 54 ± 18%. Further, inhibition against MtFBA [3] (SAR table) was half-maximal at 300 ± 67 µM (IC50).
Take `O=C(O)c1ccc2cc(F)cc(O)c2n1` [Compound 6F-HCA, 6-fluoro-8-hydroxyquinoline-2-carboxylic acid]: on MtFBA [3] (fluorine at position 6 versus HCA), the “increase in potency toward the enzyme relative to HCA” value worked out at 50%.
Regarding `Nc1cccc2cccnc12` [Compound 18], the “% Inhibition at 1 mM” value at MtFBA [3] is 68 ± 2.2%. The compound further returned an IC50 on MtFBA [3] (SAR table) of 79 ± 10 µM.
